Reference: patent US9095591B2, “Pharmaceutical composition for use in the treatment of glaucoma” (Institut National de la Sante et de la Recherche Medicale …, priority 2010, dated 2015)
Entries after “also recorded” stand apart in the source; their conditions may differ.

Tests used:
[1] = test system: rat model of surgically-induced glaucoma; experiment: Intraocular pressure (IOP, TonoPen) in rat model of surgically-induced glaucoma (episcleral vein cauterization); type: in vivo, Brown Norway rats; conditions: for effect on IOP in control (nonglaucomatous, non-operated) eyes: subconjunctival injection; for effect on IOP in glaucomatous eyes (CXCR4 antagonist comparison): subconjunctival injections, FIG. 3
Procedure: In order to test the functionality of putative CXCR3 blocking compounds on intraocular pressure (IOP), an in vivo test is necessary. For that purpose a model of local eye hypertonia is highly relevant. The model of ocular hypertonia in rats by episcleral vein occlusion (Garcia-Valenzuela et al., 1995) as described in the figures can be used to test such molecules.
Subconjunctival injections of NBI74330 (1 μM) or vehicle were performed in glaucoma eyes and in control eyes. One single injection of NBI (A) induced a reduction in IOP during 3 days (p<0.001). Two injections of NBI (A and B) induced a decrease in IOP during 12 days (p<0.001). […] (In vivo measurements of the IOP using TonoPen).
Male 8-week-old Brown Norway rats weighing 300-400 g were housed in Jussieu animal house (UMRS968, Vision Institute, Paris, France). All experiments were conducted in accordance with the Association for Research in Vision and Ophthalmology for the Use of Animals in Ophthalmic research. Ocular integrity was checked using slit lamp biomicroscope. Surgical model of elevated IOP was induced in the right eye of each rat by cauterization of three episcleral veins after conjunctival dissection as previously reported [Bayer A U et Al., 2001 and Garcia-Valenzuela E et Al., 1995] under general anaesthesia (intra peritoneal injection of ketamine 75 mg/kg and xylazine 10 mg/kg). Left eyes underwent conjunctival dissection only as controls. After the surgery, animals were maintained for a 1-month period and monitored for IOP three times a week using a handheld tonometer (Tonopen, Medtronics, Jacksonville, Fla.) without sedation. 30 animals presenting a stable elevated IOP were included and randomly divided in three equal groups: in both eyes, 10 rats received one subconjunctival injection of NBI74330 (1 μM, 100 μl), […], and 10 rats received a vehicle injection (PBS, 100 μl). IOP was monitored every two days by one independent person i.e. who was blind of the treatment. At the end of the experiments, animals were euthanized and the eyes were immediately conditioned for IHC.

[2] = test system: trabecular meshwork; experiment: Trabecular percent effective filtration length (fluorescent microsphere injection, ex vivo confocal imaging of TMs); type: in vivo, Brown Norway rats; conditions: glaucomatous eyes; 1 μM, 100 μL, two subconjunctival injections
Procedure: (§1) Aqueous humor outflow was measured by in vivo fluorophotometry (FIG. 4A) and the trabecular aqueous outflow evaluated by fluorescent microsphere injection and ex vivo confocal imaging of TMs (data not shown). […] In parallel, rat TM tissues were assessed for cellularity and apoptosis by immunohistofluorescence and TUNEL-labeling.

[3] = test system: trabecular cells; experiment: Trabecular cell apoptosis by TUNEL-labeling in rat glaucoma model; type: in vivo, Brown Norway rats; conditions: glaucoma eyes treated vs untreated
Procedure: (§2) Eyes were conditioned into cryosections and assessed for apoptosis using TUNEL-labeling. TM was identified in each cryosections as a pigmented slim tissue on the posterior sclera-cornea beside the iris root and just above the endothelial Schlemm's canals.
Investigations were conducted in order to study mechanisms involved in the NBI-74330-related decrease in IOP. Aqueous humor outflow was measured by in vivo fluorophotometry (FIG. 4A) and the trabecular aqueous outflow evaluated by fluorescent microsphere injection and ex vivo confocal imaging of TMs (data not shown). […] This decrease in trabecular outflow facility is similar to what is observed during hypertensive POAG in humans. […] In parallel, rat TM tissues were assessed for cellularity and apoptosis by immunohistofluorescence and TUNEL-labeling.

[4] = test system: rat model of surgically-induced glaucoma; experiment: Aqueous humor outflow by in vivo fluorophotometry in rat glaucoma model; design: species or system Brown Norway rats; conditions: glaucomatous eyes vs vehicle-treated; 1 μM, 100 μL, two subconjunctival injections
Procedure: as §1

[5] = test system: retinal ganglion cells; experiment: Apoptosis of Schlemm cells, retinal cells and retinal ganglion cells by TUNEL-labeling in rat glaucoma model; type: in vivo, Brown Norway rats
Excerpt: as §2
Moreover, NBI-related reduction in IOP was associated with a decrease in retinal ganglion cell apoptosis as assessed by TUNEL-labeling (4.01±0.86, 11.11±3.62, and 5.73±1.15 apoptotic retinal ganglion cells/mm for control eyes, untreated glaucomatous eyes, and NBI-treated glaucomatous eyes, respectively; P<0.05 between each group).

[6] = glaucoma eyes treated vs untreated

SMILES	effect on IOP in control (nonglaucomatous, non-operated) eyes [1]	effect on IOP in control (nonglaucomatous, non-operated) eyes ([1]; listed as AMD-3100)	effect on IOP in glaucomatous eyes (CXCR4 antagonist comparison) ([1]; glaucomatous eyes (n=20))	effect on IOP in glaucomatous eyes (CXCR4 antagonist comparison) ([1]; glaucomatous eyes (n=20), listed as AMD-3100)	effect on IOP in control (nonglaucomatous, non-operated) eyes ([1]; listed as NBI-74330)	duration of reduction in IOP ([1]; glaucoma eyes, one single subconjunctival injection, 1 μM, p<0.001)	IOP after a second injection ([1]; glaucoma eyes, second subconjunctival injection 4 days after the first one)	time course of IOP lowering after a single injection ([1]; glaucoma eyes, single subconjunctival injection 1 μM, 100 μl)	duration of decrease in IOP ([1]; glaucoma eyes, two subconjunctival injections, 1 μM, p<0.001)	dose dependence of IOP reduction ([1]; glaucomatous eyes (n=20), FIG. 2)	effect on IOP in glaucoma eyes ([1]; surgically-induced elevated IOP, subconjunctival injection 1 μM, 100 μl)	percent effective filtration length (PEFL), trabecular filtrating surface [2]	trabecular cell apoptosis (TUNEL) [3]	trabecular cell apoptosis (TUNEL) ([3]; listed as NBI-74330)	aqueous humor outflow (AHO) [4]	retinal ganglion cell apoptosis (TUNEL) ([5]; NBI-treated glaucomatous eyes, control eyes 4.01±0.86, untreated glaucomatous eyes 11.11±3.62, P<0.05)	TUNEL labeling of endothelial Schlemm cells [5, 6]	TUNEL labeling of retinal cells (inner nuclear layer and ganglion cell layer) [5, 6]
c1cc(CN2CCCNCCNCCCNCC2)ccc1CN1CCCNCCNCCCNCC1 [AMD3100]	did not affect the IOP; also recorded: had no effect on the basal IOP level	had any effect on IOP	did not affect the IOP	did not influence IOP														
CCOc1ccc(-n2c(C(C)N(Cc3cccnc3)C(=O)Cc3ccc(F)c(C(F)(F)F)c3)nc3ncccc3c2=O)cc1 (stereo not shown) [NBI74330]	did not influence the IOP; also recorded: had no effect on the basal IOP level				had any effect on IOP	3 days	a significantly low IOP was maintained until the end of the experiments	significant the 2nd to the 5th day after the treatment, reaching the average IOP level of control eyes	12 days	reduced the IOP in glaucomatous eyes (n=20) in a dose-dependent manner	induced an IOP lowering	significantly improved	Apoptosis was higher in trabecular cells of untreated glaucoma eyes than in glaucoma eyes treated with NBI74330	Trabecular apoptosis was reversed; also recorded: significantly reduced the amount of apoptotic TCs	AHO was improved; also recorded: aqueous humor outflow impairment was significantly reversed	5.73±1.15 apoptotic retinal ganglion cells/mm	more TUNEL labeling in the untreated glaucoma eyes than in glaucoma eyes treated with NBI74330	more TUNEL labeling in the untreated glaucoma eyes than in glaucoma eyes treated with NBI74330
